Each structure is given as a SMILES string. Counter-ions that a name gives are not always drawn.

In this assay the target is TNFα (Homo sapiens, UniProt P01375). In words: TNF induced HEK-Blue assay (NF-kB-driven secreted alkaline phosphatase reporter). It is filed as cell-based. The following applies: TNFα 0.5 ng/mL, HEK-Blue-CD40L cells, 18 h; read-out: TNF induced HEK-Blue assay IC50 value. How it is done: TNF or CD40L-Induced HEK-Blue Assay
Chain of TNFα (P01375 77-233 limits assumed): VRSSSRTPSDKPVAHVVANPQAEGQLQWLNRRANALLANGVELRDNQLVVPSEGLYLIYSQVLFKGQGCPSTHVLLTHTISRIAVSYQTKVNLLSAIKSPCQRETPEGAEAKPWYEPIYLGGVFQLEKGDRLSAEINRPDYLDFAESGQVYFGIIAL
Test compounds serially diluted in DMSO were plated in an assay plate (LABCYTE, Cat. # LP-0200) at final concentrations ranging from 0.004 μM to 25 μM. TNFα (final concentration 0.5 ng/mL) or CD40L (final concentration 30 ng/mL) in assay buffer [DMEM, 4.5 g/l glucose (Gibco, Cat. 21063-029), 10% FBS (Sigma, F4135), 1% Penicillin-Streptomycin (Gibco, Cat. 15140-122), 1% Anti-Anti (Gibco, Cat. 15240-112) and 2 mM L-glutamine (Gibco, Cat. 25030-081)] was then added to the assay plate. After a 30 minute pre-incubation at 37° C. and 5% CO2, HEK-Blue™-CD40L cells (INVIVOGEN, Cat. Code hkb-cd40) containing a NF-kB-driven secreted alkaline phosphatase reporter gene were seeded into the assay plate at a density of 20,000 cells per well. This plate was then incubated for 18 h at 37° C. and 5% CO2. Secreted alkaline phosphatase expression was measured using QUANTI-Blue™ (INVIVOGEN, Cat. Code rep-qb1) according to manufacturer's specifications and the assay plate was read on a PerkinElmer Envision at 620 nm.
Inhibition data for the test compound over a range of concentrations was plotted as percentage inhibition of the test compound (100%=maximum inhibition). IC50 values were determined after correcting for background [(sample read-mean of low control)/(mean of high control-mean of low control)] where by the low control is DMSO without stimulation and high control is DMSO with stimulation. The IC50 is defined as the concentration of test compound which produces 50% inhibition and was quantified using the 4 parameter logistic equation to fit the data.
Turning to `Cc1nc2ccc(-c3ccc(C(C)(C)O)cc3)cc2c(NC(C)c2ccsc2)c1Cl` (centres unmarked) [Example 503, 2-(4-(3-chloro-2-methyl-4-((1-(thiophen-3-yl)ethyl)amino)quinolin-6-yl)phenyl)propan-2-ol], the IC50 lay in the range of 1000 to 10000 nM.
The value for `Cc1nc2c(F)cc(-c3cnc(C(C)(C)O)nc3)cc2c(NC(C)c2ccccc2)c1Cl` (centres unmarked) [Example 306, 2-(5-(3-chloro-8-fluoro-2-methyl-4-((1-phenylethyl)amino)quinolin-6-yl)pyrimidin-2-yl)propan-2-ol] was less than 1000 nM.
Regarding `C[C@@H](Nc1c(Cl)cnc2ccccc12)c1cc(-c2cnn(Cc3ccccc3)c2)ccc1F` [Example 466, (R)—N-(1-(5-(1-benzyl-1H-pyrazol-4-yl)-2-fluorophenyl)ethyl)-3-chloroquinolin-4-amine], the concentration for half-maximal inhibition (IC50) was 10000 to 25000 nM.
Next, `C[C@@H](Nc1c(Cl)cnc2ccc(-c3cnc(C4(O)CCCC4)nc3)cc12)c1ccccc1F` [Example 120, (R)-1-(5-(3-chloro-4-((1-(2-fluorophenyl)ethyl)amino)quinolin-6-yl)pyrimidin-2-yl)cyclopentan-1-ol]: less than 1000 nM.
For the compound `CN(Nc1c(Cl)cnc2ccc(-c3cnc(C(C)(C)O)nc3)cc12)c1ccccc1` [Example 54, 2-(5-(3-chloro-4-(2-methyl-2-phenylhydrazinyl)quinolin-6-yl)pyrimidin-2-yl)propan-2-ol], the IC50 is less than 1000 nM.
The value for `Cc1ccc(C)c(Nc2c(Cl)c(C(=O)Nc3cccnc3)nc3ccc(-c4ccc(C#N)nc4)cc23)c1` [Example 32, 3-chloro-6-(6-cyanopyridin-3-yl)-4-((2,5-dimethylphenyl)amino)-N-(pyridin-3-yl)quinoline-2-carboxamide] was less than 1000 nM; that for `CC(Nc1c(Cl)cnc2ccc(-c3ccc(C(C)(C)O)cc3)cc12)c1ccncc1` (racemic) [Example 176, 2-(4-(3-chloro-4-((1-(pyridin-4-yl)ethyl)amino)quinolin-6-yl)phenyl)propan-2-ol] was less than 1000 nM; that for `Cc1nc2c(F)cc(-c3cnc(C(C)(C)O)nc3)cc2c(N[C@@H](c2ccccc2F)C(F)F)c1Cl` [Example 299, (S)-2-(5-(3-chloro-4-((2,2-difluoro-1-(2-fluorophenyl)ethyl)amino)-8-fluoro-2-methylquinolin-6-yl)pyrimidin-2-yl)propan-2-ol] was less than 1000 nM.
For the compound `CC(Nc1c(Cl)cnc2cc(F)c(-c3cnc(C(C)(C)O)cn3)cc12)c1ccccc1F` (single isomer, unassigned) [Example 595, 2-(5-(3-chloro-7-fluoro-4-((1-(2-fluorophenyl)ethyl)amino)quinolin-6-yl)pyrazin-2-yl)propan-2-ol], the concentration for half-maximal inhibition (IC50) is less than 1000 nM.
On to `CC(Nc1c(Cl)cnc2cc(F)c(-c3ccc(C(O)CO)cc3)cc12)c1ccccc1F` (centres unmarked) [Example 290, 1-(4-(3-chloro-7-fluoro-4-((1-(2-fluorophenyl)ethyl)amino)quinolin-6-yl)phenyl)ethane-1,2-diol], for which the IC50 is less than 1000 nM.
The value for `C[C@@H](Nc1c(Cl)cnc2ccc(-c3cnn(C)c3)cc12)c1cc(-c2cncnc2)ccc1F` [Example 550, (R)-3-chloro-N-(1-(2-fluoro-5-(pyrimidin-5-yl)phenyl)ethyl)-6-(1-methyl-1H-pyrazol-4-yl)quinolin-4-amine] was less than 1000 nM; that for `C[C@@H](Nc1c(Cl)cnc2ccc(-c3cnc(C(C)(C)O)nc3)cc12)c1cc(S(N)(=O)=O)ccc1F` [Example 426, (R)-3-(1-((3-chloro-6-(2-(2-hydroxypropan-2-yl)pyrimidin-5-yl)quinolin-4-yl)amino)ethyl)-4-fluorobenzenesulfonamide] was less than 1000 nM.
Take `Cc1nc2ccc(-c3cnc(C(C)(C)O)nc3)cc2c(N[C@@H](c2cc(C(N)CO)ccc2F)C(F)F)c1Cl` (mixture of isomers) [Example 434, 2-(5-(4-(((1 S)-1-(5-(1-amino-2-hydroxyethyl)-2-fluorophenyl)-2,2-difluoroethyl)amino)-3-chloro-2-methylquinolin-6-yl)pyrimidin-2-yl)propan-2-ol]: the half-maximal inhibitory concentration (IC50) is less than 1000 nM.
In the case of `Cc1nc2ccc(-c3ccc(C(C)(C)O)cc3)cc2c(N[C@H](C)c2cc(C(N)=O)ccc2F)c1Cl` [Example 312, (R)-3-(1-((3-chloro-6-(4-(2-hydroxypropan-2-yl)phenyl)-2-methylquinolin-4-yl)amino)ethyl)-4-fluorobenzamide], the concentration for half-maximal inhibition (IC50) is less than 1000 nM.
Regarding `Cc1nc2cc(F)c(-c3cnc(C(C)(C)O)nc3)cc2c(N[C@H](C)c2cc(CCC(N)=O)ccc2F)c1Cl` [Example 445, (R)-3-(3-(1-((3-chloro-7-fluoro-6-(2-(2-hydroxypropan-2-yl)pyrimidin-5-yl)-2-methylquinolin-4-yl)amino)ethyl)-4-fluorophenyl)propanamide], the IC50 is less than 1000 nM.
The value for `CC(C)(O)c1ncc(-c2ccc3ncc(Cl)c(NC(CCF)c4ccccc4F)c3c2)cn1` (racemic) [Example 230, 2-(5-(3-chloro-4-((3-fluoro-1-(2-fluorophenyl)propyl)amino)quinolin-6-yl)pyrimidin-2-yl) propan-2-ol] was less than 1000 nM; that for `CC(Nc1c(Cl)cnc2c(Cl)cc(Br)cc12)c1ccccc1F` (racemic) [Example 122, 6-bromo-3,8-dichloro-N-(1-(2-fluorophenyl)ethyl)quinolin-4-amine] was 10000 to 25000 nM; that for `C[C@@H](Nc1c(Cl)cnc2ccccc12)c1cc(-c2cnc(C3CC3)nc2)ccc1F` [Example 519, (R)-3-chloro-N-(1-(5-(2-cyclopropylpyrimidin-5-yl)-2-fluorophenyl)ethyl) quinolin-4-amine] was 1000 to 10000 nM.
As for `COc1ccc(-c2ccc(F)c([C@@H](C)Nc3c(Cl)cnc4ccccc34)c2)cn1` [Example 460, (R)-3-chloro-N-(1-(2-fluoro-5-(6-methoxypyridin-3-yl)phenyl)ethyl)quinolin-4-amine], the half-inhibitory concentration (IC50) is less than 1000 nM.
Next, `Cc1nc2ccc(-c3cnc(C(C)(C)O)nc3)cc2c(N[C@H](C)c2cc(C(C)(C)O)ccc2F)c1Cl` [Example 408, (R)-2-(5-(3-chloro-4-((1-(2-fluoro-5-(2-hydroxypropan-2-yl)phenyl)ethyl)amino)-2-methylquinolin-6-yl)pyrimidin-2-yl)propan-2-ol, TFA Salt]: less than 1000 nM.
Next, `C[C@@H](Nc1c(Cl)cnc2ccc(-c3cnc(N4CCOCC4)nc3)cc12)c1ccccc1F` [Example 219, (R)-3-chloro-N-(1-(2-fluorophenyl)ethyl)-6-(2-morpholinopyrimidin-5-yl)quinolin-4-amine]: less than 1000 nM; `CC(Nc1c(Cl)cnc2cc(F)c(-c3cnc(N4C[C@H]5CC[C@@H](C4)C5C(=O)O)nc3)cc12)c1ccccc1F` (single isomer, unassigned) [Example 611]: less than 1000 nM; `CC(Nc1c(Cl)c(N)nc2ccc(-c3cnc(N4CCN(CC(=O)O)CC4)nc3)cc12)c1ccccc1F` (centres unmarked) [Example 46, 2-(4-(5-(2-amino-3-chloro-4-((1-(2-fluorophenyl)ethyl)amino)quinolin-6-yl)pyrimidin-2-yl)piperazin-1-yl) acetic acid]: less than 1000 nM.
For the compound `CCC(Nc1c(Cl)cnc2ccc(-c3cnc(C(C)(C)O)nc3)cc12)c1nc(CO)ccc1F` (centres unmarked) [Example 130, 2-(5-(3-chloro-4-((1-(3-fluoro-6-(hydroxymethyl)pyridin-2-yl)propyl)amino)quinolin-6-yl)pyrimidin-2-yl)propan-2-ol], the IC50 is less than 1000 nM.
`C[C@@H](Nc1c(Cl)cnc2cc(F)c(-c3cnc(C(C)(C)O)nc3)nc12)c1cccc(C#N)c1` [Example 588, (R)-3-(1-((3-chloro-7-fluoro-6-(2-(2-hydroxypropan-2-yl)pyrimidin-5-yl)-1,5-naphthyridin-4-yl)amino)ethyl)benzonitrile]: the IC50 was less than 1000 nM.
For `C[C@@H](Nc1c(Cl)cnc2ccc(-c3cnc(C(C)(C)O)nc3)cc12)c1cc(CC(O)CO)ccc1F` (mixture of isomers) [Example 399, 3-(3-((R)-1-((3-chloro-6-(2-(2-hydroxypropan-2-yl)pyrimidin-5-yl)quinolin-4-yl)amino)ethyl)-4-fluorophenyl)propane-1,2-diol], the 50% inhibitory concentration (IC50) is less than 1000 nM.
In the case of `C[C@@H](Nc1c(Cl)cnc2ccc(-c3cnc(C(C)(C)O)nc3)cc12)c1cc(Cl)ncc1F` [Example 53, (R)-2-(5-(3-chloro-4-((1-(2-chloro-5-fluoropyridin-4-yl)ethyl)amino)quinolin-6-yl)pyrimidin-2-yl)propan-2-ol], the half-maximal inhibitory concentration (IC50) is 1000 to 10000 nM.
On to `CC(Nc1c(Cl)cnc2cc(F)c(-c3cnc(C(O)CN4CCOCC4)cn3)cc12)c1ccccc1F` (centres unmarked) [Example 273, 1-(5-(3-chloro-7-fluoro-4-((1-(2-fluorophenyl)ethyl)amino)quinolin-6-yl)pyrazin-2-yl)-2-morpholinoethan-1-ol], for which the IC50 is less than 1000 nM.
Next, `CN(Cc1c(Cl)cnc2ccc(-c3cnc(C(C)(C)O)nc3)cc12)c1ccccc1F` [Example 67, 2-(5-(3-chloro-4-(((2-fluorophenyl)(methyl)amino)methyl)quinolin-6-yl)pyrimidin-2-yl)propan-2-ol]: 1000 to 10000 nM.

Source of the values: US10865191B2, “Heterocyclic compounds useful as modulators of TNF alpha” (BRISTOL-MYERS SQUIBB COMPANY, priority 2015, dated 2020).
